Laboratory results as given in patent US20230183193A1, “4-DIFLUOROMETHYL BENZOYL AMIDES WITH HERBICIDAL ACTION” (BAYER CROPSCIENCE AKTIENGESELLSCHAFT, priority 2017, published 2023).

How the values were obtained:
Abutilon theophrasti [1] = assay: Pre-emergence herbicidal action, ABUTH; type: in vivo; details: for Herbicidal efficacy against ABUTH: Table K; for herbicidal activity ABUTH: scored visually after 3 weeks vs untreated controls
Method in brief: (§1)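 Weed seeds were laid out in sandy loam and covered with soil, then the soil surface was treated with an aqueous suspension or emulsion of the formulated compound containing 0.2% wetting agent. Pots stayed in the greenhouse for 3 weeks before damage was rated visually against untreated plants.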

Alopecurus myosuroides [2] = assay: Pre-emergence herbicidal action, ALOMY; type: in vivo; details: for herbicidal activity ALOMY: dosage 320 g/ha, scored visually after 3 weeks vs untreated controls
Method in brief: as §1

Amaranthus retroflexus [3] = assay: Pre-emergence herbicidal action, AMARE; type: in vivo; details: dosage 320 g/ha, scored visually after 3 weeks vs untreated controls
Method in brief: as §1

Avena fatua [4] = assay: Pre-emergence herbicidal action, AVEFA; type: in vivo; details: for herbicidal activity AVEFA: dosage 320 g/ha, scored visually after 3 weeks vs untreated controls
Method in brief: as §1

Cyperus serotinus = assay: Pre-emergence herbicidal action, CYPES; type: in vivo; details: for herbicidal activity CYPES: dosage 320 g/ha, scored visually after 3 weeks vs untreated controls
Method in brief: as §1

Matricaria inodora = assay: Pre-emergence herbicidal action, MATIN; type: in vivo; details: for Herbicidal efficacy against MATIN: Table K; for herbicidal activity MATIN: scored visually after 3 weeks vs untreated controls
Method in brief: as §1

Polygonum convolvulus = assay: Pre-emergence herbicidal action, POLCO; type: in vivo; details: Table K
From the text: 1. Pre-Emergence Herbicidal Action Against Harmful Plants Seeds of monocotyledonous and dicotyledonous weed plants and crop plants are laid out in sandy loam soil in wood-fiber pots and covered with soil. The compounds of the invention, formulated in the form of wettable powders (WP) or as emulsion concentrates (EC), are then applied to the surface of the covering soil in the form of an aqueous suspension or emulsion at a water application rate equating to […], with addition of 0.2% wetting agent. After the treatment, the pots are placed in a greenhouse and kept under good growth conditions for the trial plants. The damage to the test plants is scored visually after a test period of 3 weeks by comparison with untreated controls (herbicidal activity in percent (%): 100% activity=the plants have died, 0% activity=like control plants).
For comparison, the herbicidal activity of numerous compounds according to the invention was tested with the structurally closest compounds known from the documents WO 2011/035874, WO 2012/028579 and WO 2012/126932, by the pre- and post-emergence method.

Setaria viridis [5] = assay: Pre-emergence herbicidal action, SETVI; type: in vivo; details: for herbicidal activity SETVI: dosage 320 g/ha, scored visually after 3 weeks vs untreated controls
Method in brief: as §1

Stellaria media [6] = assay: Pre-emergence herbicidal action, STEME; type: in vivo; details: dosage 320 g/ha, scored visually after 3 weeks vs untreated controls
Method in brief: as §1

Viola tricolor [7] = assay: Pre-emergence herbicidal action, VIOTR; type: in vivo; details: for Herbicidal efficacy against VIOTR: Table K; for herbicidal activity VIOTR: scored visually after 3 weeks vs untreated controls
Method in brief: as §1

Abutilon theophrasti [8] = assay: Post-emergence herbicidal action, ABUTH; type: in vivo; details: 80 g/ha, Table D
Method in brief: (§2)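 Post-emergence spray; one-leaf stage (2–3 wk after sowing), sandy loam, greenhouse. WP/EC in water, 600 to […], +0.2% wetting agent. Visual % damage vs untreated at ~3 wk; 100% = plants dead.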

Alopecurus myosuroides [9] = assay: Post-emergence herbicidal action, ALOMY; type: in vivo
Method in brief: as §2

Amaranthus retroflexus [10] = assay: Post-emergence herbicidal action, AMARE; type: in vivo; details: 80 g/ha, Table D
Method in brief: as §2

Avena fatua [11] = assay: Post-emergence herbicidal action, AVEFA; type: in vivo; details: for herbicidal activity AVEFA: 80 g/ha, Table C
Method in brief: as §2

Pharbitis purpureum = assay: Post-emergence herbicidal action, PHBPU; type: in vivo; details: 80 g/ha, Table D
Method in brief: as §2

Setaria viridis [12] = assay: Post-emergence herbicidal action, SETVI; type: in vivo; details: for herbicidal activity SETVI: 80 g/ha, Table C
Method in brief: as §2

Stellaria media [13] = assay: Post-emergence herbicidal action, STEME; type: in vivo; details: for Herbicidal activity STEME: 80 g/ha, Table D
Method in brief: as §2

Viola tricolor [14] = assay: Post-emergence herbicidal action, VIOTR; type: in vivo; details: for herbicidal activity VIOTR: 80 g/ha, Table D
Method in brief: as §2

ECHCG [15] = assay: Post-emergence herbicidal action, ECHCG; type: in vivo; details: 80 g/ha, Table C
Method in brief: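 Weed and crop plants grown in sandy loam in the greenhouse, treated at the one-leaf stage 2–3 weeks after sowing. Damage scored visually after about 3 weeks vs untreated controls (0% = control, 100% = dead).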

ECHCG [16] = assay: Pre-emergence herbicidal action, ECHCG; type: in vivo, Echinochloa crus-galli

| Structure (SMILES) | Herbicidal efficacy against ABUTH (Abutilon theophrasti [1]; dosage 80 g/ha) | herbicidal activity ABUTH (Abutilon theophrasti [1]; dosage 320 g/ha) | Herbicidal efficacy against ALOMY (Alopecurus myosuroides [2]; 80 g/ha) | herbicidal activity ALOMY (Alopecurus myosuroides [2]) | herbicidal activity AMARE (Amaranthus retroflexus [3]) | Herbicidal efficacy against AVEFA (Avena fatua [4]; 80 g/ha) | herbicidal activity AVEFA (Avena fatua [4]) | Herbicidal efficacy against CYPES (Cyperus serotinus; 80 g/ha) | herbicidal activity CYPES (Cyperus serotinus) | herbicidal activity MATIN (Matricaria inodora; dosage 320 g/ha) | Herbicidal efficacy against POLCO (Polygonum convolvulus; dosage 80 g/ha) | herbicidal activity SETVI (Setaria viridis [5]) | Herbicidal activity STEME (Stellaria media [6]) | Herbicidal efficacy against VIOTR (Viola tricolor [7]; dosage 80 g/ha) | herbicidal activity VIOTR (Viola tricolor [7]; dosage 320 g/ha) | herbicidal activity ABUTH (Abutilon theophrasti [8]) | herbicidal activity AMARE (Amaranthus retroflexus [10]) | herbicidal activity AVEFA (Avena fatua [11]) | Herbicidal activity PHBPU (Pharbitis purpureum) | herbicidal activity SETVI (Setaria viridis [12]) | other results |
| --- | --- | --- | --- | --- | --- | --- | --- | --- | --- | --- | --- | --- | --- | --- | --- | --- | --- | --- | --- | --- | --- |
| Cc1c(C(=O)Nc2ncnn2C)ccc(C(F)F)c1S(C)(=O)=O [Example 4-3] | 100 | 100% | 60 | 90% | 100% | 30 | 80% | 100 | 100% | 100% | 40 | 100% | 100% | 100 | 100% | 100% | 100% | 90% | 100% | 100% | Herbicidal efficacy against ABUTH (Abutilon theophrasti [1]; dosage 320 g/ha): 100; Herbicidal efficacy against ALOMY (Alopecurus myosuroides [2]; 320 g/ha): 90; Herbicidal efficacy against AVEFA (Avena fatua [4]; 320 g/ha): 80; Herbicidal efficacy against CYPES (Cyperus serotinus; 320 g/ha): 100; Herbicidal efficacy against MATIN (Matricaria inodora; dosage 80 g/ha): 100; Herbicidal efficacy against MATIN (Matricaria inodora; dosage 320 g/ha): 100; Herbicidal efficacy against POLCO (Polygonum convolvulus; dosage 320 g/ha): 70; Herbicidal efficacy against SETVI (Setaria viridis [5]; 80 g/ha): 90; Herbicidal efficacy against SETVI (Setaria viridis [5]; 320 g/ha): 100; Herbicidal efficacy against VIOTR (Viola tricolor [7]; dosage 320 g/ha): 100; Herbicidal efficacy against ALOMY (Alopecurus myosuroides [9]; 20 g/ha): 30; Herbicidal efficacy against AVEFA (Avena fatua [11]; 20 g/ha): 50; Herbicidal efficacy against SETVI (Setaria viridis [12]; 20 g/ha): 40; Herbicidal efficacy against STEME (Stellaria media [13]; 20 g/ha): 60; Herbicidal activity STEME (Stellaria media [13]): 90%; Herbicidal efficacy against VIOTR (Viola tricolor [14]; 20 g/ha): 100; herbicidal activity VIOTR (Viola tricolor [14]): 100%; Herbicidal activity ECHCG (ECHCG [15]): 100%; Herbicidal efficacy against ECHCG (ECHCG [16]; 80 g/ha): 100; Herbicidal efficacy against ECHCG (ECHCG [16]; 320 g/ha): 100 |
| CSc1c(C(F)F)ccc(C(=O)Nc2nnnn2C)c1Cl [Example 1-49] | 100 | 100% | 90 | 100% | 100% | 80 | 100% | 70 | 90% | 100% | 50 | 100% | 90% | 100 | 100% | 90% | 80% | 100% | 90% | 90% | Herbicidal efficacy against ABUTH (Abutilon theophrasti [1]; dosage 20 g/ha): 70; Herbicidal efficacy against ALOMY (Alopecurus myosuroides [2]; 20 g/ha): 40; Herbicidal efficacy against AVEFA (Avena fatua [4]; 20 g/ha): 50; Herbicidal efficacy against CYPES (Cyperus serotinus; 20 g/ha): 50; Herbicidal efficacy against MATIN (Matricaria inodora; dosage 20 g/ha): 80; Herbicidal efficacy against SETVI (Setaria viridis [5]; 20 g/ha): 90; Herbicidal efficacy against VIOTR (Viola tricolor [7]; dosage 20 g/ha): 100; Herbicidal efficacy against ALOMY (Alopecurus myosuroides [9]; 5 g/ha): 60; herbicidal activity ALOMY (Alopecurus myosuroides [9]; 80 g/ha, Table C): 90%; Herbicidal efficacy against AVEFA (Avena fatua [11]; 5 g/ha): 50; Herbicidal efficacy against SETVI (Setaria viridis [12]; 5 g/ha): 80; Herbicidal efficacy against STEME (Stellaria media [13]; 5 g/ha): 70; Herbicidal activity STEME (Stellaria media [13]): 100%; Herbicidal efficacy against VIOTR (Viola tricolor [14]; 5 g/ha): 100; herbicidal activity VIOTR (Viola tricolor [14]): 100%; Herbicidal activity ECHCG (ECHCG [15]): 80%; Herbicidal efficacy against ECHCG (ECHCG [16]; 20 g/ha): 50; Herbicidal efficacy against ECHCG (ECHCG [16]; 80 g/ha): 100 |
